Patent US20240254114A1, “PREPARATION OF FUSED AZOLE DERIVATIVES AS NOVEL DIACYLGLYCERIDE 0-ACYLTRANSFERASE 2 INHIBITORS” (Merck Sharp & Dohme LLC, priority 2022, published 2024)
Like-named read-outs stand apart in the source and are kept apart here.

Target: human DGAT2 (Homo sapiens (Human), UniProt Q96PD7)
Assay: DGAT2 Enzymatic Activity Assay
Conditions: 13C18-triolein product by LC/MS/MS
[1] = Human DGAT2 IC50, hDGAT2 membrane prep from Sf-9 cells
[2] = read-out: Human DGAT2 IC50, hDGAT2 membrane prep from Sf-9 cells

Sequence of human DGAT2 (Q96PD7 whole entry): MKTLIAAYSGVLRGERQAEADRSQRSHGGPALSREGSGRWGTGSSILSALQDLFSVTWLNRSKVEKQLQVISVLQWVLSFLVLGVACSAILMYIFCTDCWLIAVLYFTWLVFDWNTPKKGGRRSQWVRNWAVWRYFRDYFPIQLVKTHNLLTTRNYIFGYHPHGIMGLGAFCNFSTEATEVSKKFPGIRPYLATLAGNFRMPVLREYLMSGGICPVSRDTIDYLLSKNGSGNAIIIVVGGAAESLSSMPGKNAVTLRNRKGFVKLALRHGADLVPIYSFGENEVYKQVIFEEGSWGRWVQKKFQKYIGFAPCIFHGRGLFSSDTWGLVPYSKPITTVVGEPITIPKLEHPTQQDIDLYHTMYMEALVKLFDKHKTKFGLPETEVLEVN

| SMILES | IC50 [1] | IC50 [2] |
| --- | --- | --- |
| Cc1cc2nc(C(=O)NC3(C)CCS(=O)(=O)CC3)n(C)c2nc1Oc1ncc(Cl)cc1OCC(F)F [Example 45, 5-((5-chloro-3-(2,2-difluoroethoxy)pyridin-2-yl)oxy)-3,6-dimethyl-N-(4-methyl-1,1-dioxidotetrahydro-2H-thiopyran-4-yl)-3H-imidazo[4,5-b]pyridine-2-carboxamide] | 2.2 nM | – |
| Cc1cc(Oc2ncc(Cl)cc2OCC(F)F)nc2c1nc(C(=O)NC1(C)CCS(=O)(=O)CC1)n2C [Example 49, 5-[[5-chloro-3-(2,2-difluoroethoxy)-2-pyridyl]oxy]-3,7-dimethyl-N-(4-methyl-1,1-dioxo-thian-4-yl)imidazo[4,5-b]pyridin-4-ium-2-carboxamide] | 4.4 nM | – |
| CC1(NC(=O)c2nc3ccc(Oc4ncc(Cl)cc4OCC(F)F)nc3[nH]2)CCS(=O)(=O)CC1 [Example 50, 5-((5-chloro-3-(2,2-difluoroethoxy)pyridin-2-yl)oxy)-N-(4-methyl-1,1-dioxidotetrahydro-2H-thiopyran-4-yl)-3H-imidazo[4,5-b]pyridine-2-carboxamide] | 15 nM | – |
| CC(C)n1c(C(=O)NC2(C)CCS(=O)(=O)CC2)nc2nc(Oc3ncc(Cl)cc3OCC(F)F)ccc21 [Example 51, 5-((5-chloro-3-(2,2-difluoroethoxy)pyridin-2-yl)oxy)-1-isopropyl-N-(4-methyl-1,1-dioxidotetrahydro-2H-thiopyran-4-yl)-1H-imidazo[4,5-b]pyridine-2-carboxamide] | 533 nM | – |
| CC(C)n1c(C(=O)NC2(C)CCS(=O)(=O)CC2)nc2ccc(Oc3ncc(Cl)cc3OCC(F)F)nc21 [Example 52, 5-((5-chloro-3-(2,2-difluoroethoxy)pyridin-2-yl)oxy)-3-isopropyl-N-(4-methyl-1,1-dioxidotetrahydro-2H-thiopyran-4-yl)-3H-imidazo[4,5-b]pyridine-2-carboxamide] | 3.6 nM | – |
| CC1(NC(=O)c2nc3nc(Oc4ncc(Cl)cc4OCC(F)F)ccc3n2CC(F)F)CCS(=O)(=O)CC1 [Example 53, 5-((5-chloro-3-(2,2-difluoroethoxy)pyridin-2-yl)oxy)-1-(2,2-difluoroethyl)-N-(4-methyl-1,1-dioxidotetrahydro-2H-thiopyran-4-yl)-1H-imidazo[4,5-b]pyridine-2-carboxamide] | – | 134 nM |
| CC1(NC(=O)c2nc3ccc(Oc4ncc(Cl)cc4OCC(F)F)nc3n2CC(F)F)CCS(=O)(=O)CC1 [Example 54, 5-((5-chloro-3-(2,2-difluoroethoxy)pyridin-2-yl)oxy)-3-(2,2-difluoroethyl)-N-(4-methyl-1,1-dioxidotetrahydro-2H-thiopyran-4-yl)-3H-imidazo[4,5-b]pyridine-2-carboxamide] | – | 0.6 nM |
| CCn1c(C(=O)NC2(C)CCS(=O)(=O)CC2)nc2ccc(Oc3ncc(Cl)cc3OCC(F)F)nc21 [Example 55, 5-((5-chloro-3-(2,2-difluoroethoxy)pyridin-2-yl)oxy)-3-ethyl-N-(4-methyl-1,1-dioxidotetrahydro-2H-thiopyran-4-yl)-3H-imidazo[4,5-b]pyridine-2-carboxamide] | – | 8.9 nM |
| CC1(NC(=O)c2nc3nc(Oc4ncc(Cl)cc4OCC(F)F)ccc3n2CC2(F)COC2)CCS(=O)(=O)CC1 [Example 56, 5-((5-chloro-3-(2,2-difluoroethoxy)pyridin-2-yl)oxy)-1-((3-fluorooxetan-3-yl)methyl)-N-(4-methyl-1,1-dioxidotetrahydro-2H-thiopyran-4-yl)-1H-imidazo[4,5-b]pyridine-2-carboxamide] | – | 51 nM |
| CC1(NC(=O)c2nc3ccc(Oc4ncc(Cl)cc4OCC(F)F)nc3n2CC2(F)COC2)CCS(=O)(=O)CC1 [Example 57, 5-((5-chloro-3-(2,2-difluoroethoxy)pyridin-2-yl)oxy)-3-((3-fluorooxetan-3-yl)methyl)-N-(4-methyl-1,1-dioxidotetrahydro-2H-thiopyran-4-yl)-3H-imidazo[4,5-b]pyridine-2-carboxamide] | – | 183 nM |
| Cn1c(C(=O)NC2(C)CCS(=O)(=O)CC2)nc2ccc(OCc3ncc(Cl)cc3OCC(F)F)nc21 [Example 58, 5-((5-Chloro-3-(2,2-difluoroethoxy)pyridin-2-yl)methoxy)-3-methyl-N-(4-methyl-1,1-dioxidotetrahydro-2H-thiopyran-4-yl)-3H-imidazo[4,5-b]pyridine-2-carboxamide] | 2.3 nM | – |
| CCC(COc1ccc2nc(C(=O)NC3(C)CCS(=O)(=O)CC3)n(C)c2n1)OCC(F)F (stereo not shown) [Example 60, 5-[2-(2,2-Difluoroethoxy)butoxy]-3-methyl-N-(4-methyl-1,1-dioxo-thian-4-yl)imidazo[4,5-b]pyridine-2-carboxamide] | 3 nM | – |
| CCC(COc1ccc2nc(C(=O)NC3(C)CCS(=O)(=O)CC3)n(C)c2n1)OCC(C)(F)F (stereo not shown) [Example 61, 5-[2-(2,2-difluoropropoxy)butoxy]-3-methyl-N-(4-methyl-1,1-dioxo-thian-4-yl)imidazo[4,5-b]pyridine-2-carboxamide] | – | 44 nM |
| Cc1nc(Oc2ncc(Cl)cc2OCC(F)F)cc2c1nc(C(=O)NC1(C)CCS(=O)(=O)CC1)n2C [Example 74, 6-[5-chloro-3-(2,2-difluoroethoxy)pyridin-1-ium-2-yl]oxy-1,4-dimethyl-N-(4-methyl-1,1-dioxo-thian-4-yl)imidazo[4,5-c]pyridine-2-carboxamide] | – | 14 nM |
| Cn1c(C(=O)N[C@H]2CCCC(F)(F)[C@@H]2O)nc2cnc(Oc3ncc(Cl)cc3OCC(F)F)cc21 [Example 75, 6-[[5-chloro-3-(2,2-difluoroethoxy)-2-pyridyl]oxy]-N-[(1S,2R)-3,3-difluoro-2-hydroxy-cyclohexyl]-1-methyl-imidazo[4,5-c]pyridine-2-carboxamide] | – | 10 nM |
| Cn1c(C(=O)NC2(C)CCS(=O)(=O)CC2)nc2cnc(Oc3ncc(Cl)cc3OCC(F)F)c(F)c21 [Example 76, 6-[[5-Chloro-3-(2,2-difluoroethoxy)-2-pyridyl]oxy]-7-fluoro-1-methyl-N-(4-methyl-1,1-dioxo-thian-4-yl)imidazo[4,5-c]pyridine-2-carboxamide] | 3.3 nM | – |

More lines, now with the values ahead:

| IC50 [1] | IC50 [2] | SMILES |
| --- | --- | --- |
| – | 6.3 nM | Cc1cc2nc(C(=O)NC3(C)CCS(=O)(=O)CC3)n(C)c2nc1Oc1ncc(F)cc1OCC(F)(F)F [Example 46, 5-((5-fluoro-3-(2,2,2-trifluoroethoxy)pyridin-2-yl)oxy)-3,6-dimethyl-N-(4-methyl-1,1-dioxido-tetrahydro-2H-thiopyran-4-yl)-3H-imidazo[4,5-b]pyridine-2-carboxamide] |
| – | 79 nM | Cc1cc2nc(C(=O)NC3(C)CCS(=O)(=O)CC3)n(C)c2nc1Oc1ncc(F)cc1OCC(C)(F)F [Example 47, 5-[[3-(2,2-difluoropropoxy)-5-fluoro-2-pyridyl]oxy]-3,6-dimethyl-N-(4-methyl-1,1-dioxo-thian-4-yl)imidazo[4,5-b]pyridine-2-carboxamide] |
| – | 6.3 nM | Cc1cc2nc(C(=O)NC3(C)CCS(=O)(=O)CC3)n(C)c2nc1Oc1ncc(F)cc1OCC(F)F [Example 48, 5-[[3-(2,2-difluoroethoxy)-5-fluoro-2-pyridyl]oxy]-3,6-dimethyl-N-(4-methyl-1,1-dioxo-thian-4-yl)imidazo[4,5-b]pyridine-2-carboxamide] |
| – | 2.8 nM | Cn1c(C(=O)NC2(C)CCS(=O)(=O)CC2)nc2ccc(OCc3ncc(F)cc3OCC(F)(F)F)nc21 [Example 59, 5-[[5-Fluoro-3-(2,2,2-trifluoroethoxy)-2-pyridyl]methoxy]-3-methyl-N-(4-methyl-1,1-dioxo-thian-4-yl)imidazo[4,5-b]pyridine-2-carboxamide] |
| 16 nM | – | Cn1c(C(=O)NC2(C)CCS(=O)(=O)CC2)nc2cnc(Oc3ncc(Cl)cc3OCC(F)F)cc21 [Example 66, 6-((5-Chloro-3-(2,2-difluoroethoxy)pyridin-2-yl)oxy)-1-methyl-N-(4-methyl-1,1-dioxidotetrahydro-2H-thiopyran-4-yl)-1H-imidazo[4,5-c]pyridine-2-carboxamide] |
| – | 24 nM | Cn1c(C(=O)NC2(C)CCS(=O)(=O)CC2)nc2cnc(Oc3ncc(Cl)cc3OCC(C)(F)F)cc21 [Example 67, 6-[[5-chloro-3-(2,2-difluoropropoxy)-2-pyridyl]oxy]-1-methyl-N-(4-methyl-1,1-dioxo-thian-4-yl)imidazo[4,5-c]pyridine-2-carboxamide] |
| – | 27 nM | Cn1c(C(=O)NC2(C)CCS(=O)(=O)CC2)nc2cnc(Oc3ncc(F)cc3OCC(F)(F)F)cc21 [Example 68, 6-[[5-fluoro-3-(2,2,2-trifluoroethoxy)-2-pyridyl]oxy]-1-methyl-N-(4-methyl-1,1-dioxo-thian-4-yl)imidazo[4,5-c]pyridine-2-carboxamide] |
| – | 105 nM | Cn1c(C(=O)NC2(C)CCS(=O)(=O)CC2)nc2cnc(Oc3nccnc3OCC(F)(F)F)cc21 [Example 69, 1-methyl-N-(4-methyl-1,1-dioxo-thian-4-yl)-6-[3-(2,2,2-trifluoroethoxy)pyrazin-2-yl]oxy-imidazo[4,5-c]pyridine-2-carboxamide] |
| – | 11 nM | Cn1c(C(=O)NC2(C)CS(=O)(=O)C2)nc2cnc(Oc3ncc(Cl)cc3OCC(F)F)cc21 [Example 70, 6-[[5-chloro-3-(2,2-difluoroethoxy)-2-pyridyl]oxy]-1-methyl-N-(3-methyl-1,1-dioxo-thietan-3-yl)imidazo[4,5-c]pyridine-2-carboxamide] |
| – | 269 nM | Cn1c(C(=O)NC2(C)CS(=O)(=O)C2)nc2cnc(Oc3ncc(F)cc3OCC(F)F)cc21 [Example 71, 6-[[3-(2,2-difluoroethoxy)-5-fluoro-2-pyridyl]oxy]-1-methyl-N-(3-methyl-1,1-dioxo-thietan-3-yl)imidazo[4,5-c]pyridine-2-carboxamide] |
| – | 6.9 nM | Cn1c(C(=O)NC2(C)CCS(=O)(=O)CC2)nc2cnc(Oc3ncc(F)cc3OCC(F)F)cc21 [Example 72, 6-[[3-(2,2-difluoroethoxy)-5-fluoro-2-pyridyl]oxy]-1-methyl-N-(4-methyl-1,1-dioxo-thian-4-yl)imidazo[4,5-c]pyridine-2-carboxamide] |
| – | 9.1 nM | Cc1cnc(Oc2cc3c(cn2)nc(C(=O)NC2(C)CCS(=O)(=O)CC2)n3C)c(OCC(F)F)c1 [Example 73, 6-[[3-(2,2-difluoroethoxy)-5-methyl-2-pyridyl]oxy]-1-methyl-N-(4-methyl-1,1-dioxo-thian-4-yl)imidazo[4,5-c]pyridine-2-carboxamide] |
